Reference: patent US20110059962A1, “TRANSCRIPTION FACTOR MODULATING COMPOUNDS AND METHODS OF USE THEREOF” (priority 2009, published 2011)

Legend:
SoxS = biological target: T1, SoxS (Escherichia coli, UniProt P0A9E2); test: Inhibition of SoxS-DNA binding, cell-free chemiluminescence assay; set-up: species or system E. coli
T1 construct: made in house; host or cells: E. coli
T1 sequence (P0A9E2 1-107): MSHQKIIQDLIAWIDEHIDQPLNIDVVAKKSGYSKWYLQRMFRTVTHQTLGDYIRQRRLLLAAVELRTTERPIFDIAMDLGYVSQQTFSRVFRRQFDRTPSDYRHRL

LcrF (VirF) = LcrF (VirF) (Yersinia pestis, UniProt P28808); test: biochemical; type: binding, Y. pseudotuberculosis
Chain of LcrF (VirF) (P28808 whole entry, looked up): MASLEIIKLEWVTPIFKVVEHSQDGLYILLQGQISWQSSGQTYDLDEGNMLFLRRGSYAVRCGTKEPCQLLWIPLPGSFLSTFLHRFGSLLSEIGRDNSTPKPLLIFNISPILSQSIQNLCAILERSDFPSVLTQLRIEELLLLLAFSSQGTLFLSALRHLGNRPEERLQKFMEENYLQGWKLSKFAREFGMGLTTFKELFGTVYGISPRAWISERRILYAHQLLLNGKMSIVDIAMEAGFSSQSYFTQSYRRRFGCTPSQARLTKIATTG

[1] = tested on: P. aeruginosa cytotoxicity toward J774 cells; test: Inhibition of P. aeruginosa cytotoxicity toward J774 macrophage-like cells, whole cell LDH release assay (CytoTox 96); set-up: dose or concentration left out as unconfirmed; details: Pseudomonas aeruginosa, J774, read-out: % Cytotoxicity
ExsA = biological target: T2, ExsA (Pseudomonas aeruginosa, UniProt P26993); test: Inhibition of ExsA-DNA binding, cell-free chemiluminescence assay; set-up: species or system P. aeruginosa
T2 construct: made in house
T2 sequence (P26993 1-278): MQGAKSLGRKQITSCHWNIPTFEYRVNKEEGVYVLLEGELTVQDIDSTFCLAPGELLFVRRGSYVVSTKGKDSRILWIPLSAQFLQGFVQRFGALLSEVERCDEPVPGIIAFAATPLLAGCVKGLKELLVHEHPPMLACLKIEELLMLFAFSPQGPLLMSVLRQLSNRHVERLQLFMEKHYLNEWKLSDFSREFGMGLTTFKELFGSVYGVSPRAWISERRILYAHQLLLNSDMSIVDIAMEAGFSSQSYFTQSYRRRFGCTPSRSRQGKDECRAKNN

[2] = tested on: Y. pseudotuberculosis cytotoxicity toward J774 cells; test: microbe, parasite or virus in culture; details: Yersinia pseudotuberculosis, J774, read-out: % Cytotoxicity
SlyA = biological target: T3, SlyA (Salmonella typhimurium, UniProt P40676); test: Inhibition of SlyA-DNA binding, cell-free chemiluminescence assay (specificity); set-up: species or system S. typhimurium enterica serovar Typhimurium
T3 construct: made in house; host or cells: E. coli
T3 sequence (P40676 1-144): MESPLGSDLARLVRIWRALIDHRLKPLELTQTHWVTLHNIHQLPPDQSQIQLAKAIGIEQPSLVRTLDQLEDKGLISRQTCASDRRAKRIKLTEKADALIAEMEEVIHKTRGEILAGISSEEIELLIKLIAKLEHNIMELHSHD

[3] = tested on: pET-15b supercoiled plasmid DNA; test: Assay to detect direct DNA binding (UV fluorescence and agarose gel migration of plasmid DNA); details: 100 μg/mL; 100 ng pET-15b plasmid, 30 minutes at room temperature

Compound	IC50 (SoxS) [µM]	IC50 (LcrF (VirF)) [µM]	activity [1] [%]	IC50 (ExsA) [µM]	activity at 50 µg/mL [2] [%]	IC50 (SlyA) [µM]	fluorescence under UV light and DNA migration on agarose gel [3]
CSc1ccc(/C=C/C(=O)Nc2ccc(-c3nc4ccc([N+](=O)[O-])cc4n3O)cc2)cc1 [C]	25 to 50	10 to 25	75 to 99	10 to 25	75 to 99	–	–
CSc1ccc(/C=C/C(=O)Nc2ccc(-c3nc4ccc(C#N)cc4n3O)cc2)cc1 [Compound D, (E)-N-[4-(6-Cyano-1-hydroxy-1H-benzoimidazol-2-yl)-phenyl]-3-(4-methylsulfanyl-phenyl)-acrylamide]	10 to 25	25 to 50	75 to 99	< 10	75 to 99	–	–
CSc1ccc(/C=C/C(=O)Nc2ccc(-c3nc4ccc(C#N)cc4n3O)cc2)cn1 [Compound H, (E)-N-[4-(6-Cyano-1-hydroxy-1H-benzoimidazol-2-yl)-phenyl]-3-(6-methylsulfanyl-pyridin-3-yl)-acrylamide]	> 50	25 to 50	< 75	< 10	< 75	–	–
CC(=O)c1ccc(/C=C/C(=O)Nc2ccc(-c3nc4c(CC(=O)O)cc([N+](=O)[O-])cc4n3O)cc2)cc1 [Compound J, (2-{4-[(E)-3-(4-Acetyl-phenyl)-acryloylamino]-phenyl}-1-hydroxy-6-nitro-1H-benzoimidazol-4-yl)-acetic acid]	< 10	< 10	< 75	< 10	< 75	25 to 50	–
N#Cc1ccc2nc(-c3ccc(NC(=O)c4ccc(-n5cccn5)nc4)cc3)n(O)c2c1 [Compound M, N-[4-(6-Cyano-1-hydroxy-1H-benzoimidazol-2-yl)-phenyl]-6-pyrazol-1-yl-nicotinamide]	> 50	> 50	75 to 99	–	< 75	–	–
N#Cc1ccc2nc(-c3ccc(NC(=O)c4ccc(N5CCOCC5)nc4)cc3)n(O)c2c1 [Compound P, N-[4-(6-Cyano-1-hydroxy-1H-benzoimidazol-2-yl)-phenyl]-6-morpholin-4-yl-nicotinamide]	> 50	> 50	75 to 99	< 10	75 to 99	–	–
CC(=O)c1ccc(/C=C/C(=O)Nc2ccc(-c3nc4c(CC(=O)O)cc([N+](=O)[O-])cc4n3O)cc2)cn1 [Compound V, (2-{4-[(E)-3-(6-Acetyl-pyridin-3-yl)-acryloylamino]-phenyl}-1-hydroxy-6-nitro-1H-benzoimidazol-4-yl)-acetic acid]	–	< 10	< 75	< 10	< 75	25 to 50	–
CSc1ccc(/C=C/C(=O)Nc2ccc(-c3nc4ccc([N+](=O)[O-])cc4n3O)cc2)cn1 [G]	> 50	10 to 25	< 75	< 10	< 75	–	–
CCOc1ccc(-c2nc3ccc(-c4nc5ccc(N6CCN(C)CC6)cc5[nH]4)cc3[nH]2)cc1 [Hoechst 33342]	–	–	–	–	–	–	bright fluorescence under UV light and a faint smear on the gel
CN(C)c1ccc(/C=C/C(=O)Nc2ccc(-c3nc4ccc([N+](=O)[O-])cc4n3O)cc2)cn1 [Z]	–	> 50	75 to 99	> 50	75 to 99	–	–
